Assay [1] has as its target T1, wild-type BMX in PC3 cells (Homo sapiens, UniProt P51813).
T1 construct: endogenous in cells; host or cells: PC3 prostate cancer cells (wild-type, untransfected)
Kind of assay: BMX degradation assay in PC3 cells (Western blot). Format: cell-based. The note with it: 10 μM; 24 h and 72 h; band intensity normalized to α-Tubulin. Here is the method: The cell proliferation depends on BMX kinase activity that was used to monitor the cellular activity of the compounds (IC50). […].  Fig. 5 (a) Intracellular target engagement in HEK293 cells transiently transfected with BMX expressing NanoLuc®-BMX fusion vector with Promega's NanoBRET™ TE Intracellular Kinase Assay. […] Band intensity was measured using ImageJ and normalized with α-Tubulin band intensity. […] Data are mean ± standard deviation obtained from at least three independent measurements (n = 3). See ESI ^† for additional data and analysis. […] | page 12: […]
degradation assay. Protein band intensity normalized with α-Tubulin band intensity and quantified using ImageJ. Data was obtained from at least three independent measurements […]
concentration against PC3 cells, plated on 6-well plates, a day after attachment. DMSO was used as a control vehicle. At 24 h and 72 h of incubation, cells were washed in 1X PBS and lysed in 100 µL RIPA Buffer (in house) supplemented with EDTA-free Protease Inhibitor Cocktail (Merk) and DNase I (Merk). The lysis procedure was performed by re-suspending cells continuously, followed by a incubation of 30 min on ice. BMX antibody (Abcam) and tubulin antibody (Cell signaling Technology) were used in the Western blot. Band intensity […]
(Immunoblotting shows a protein as a band on a membrane.)

Another assay has as its target SRC (Homo sapiens, UniProt P12931). Kind of assay: KINOMEscan binding. The settings on record: read-out: % Ctrl SRC.
A further assay has as its target T2, His6-hsBMX (Homo sapiens, UniProt P51813).
T2 construct: Crystallization, data collection, and structure determination of BMX catalytic domain in; made in house; host or cells: Sf-9 insect cells
Kind of assay: Surface plasmon resonance (SPR). Type of assay: binding. The settings on record: 1:1 Langmuir fit, 25 °C. (In general: In SPR one partner is held on a chip, and binding of the other changes the refractive index at the surface.)

The subject of a further assay is 22 RV1. In words: Multi cell line growth assay (CellTiter-Glo, 72 h). Type of assay: cell-based, human. The settings on record: Homo sapiens, 22Rv1, Prostate, ND = no growth inhibition observed. In general terms: ATP-based viability assays read luminescence as a measure of living cells.

The structures appear in SMILES notation.

T2 sequence (P51813 417-675 limits assumed): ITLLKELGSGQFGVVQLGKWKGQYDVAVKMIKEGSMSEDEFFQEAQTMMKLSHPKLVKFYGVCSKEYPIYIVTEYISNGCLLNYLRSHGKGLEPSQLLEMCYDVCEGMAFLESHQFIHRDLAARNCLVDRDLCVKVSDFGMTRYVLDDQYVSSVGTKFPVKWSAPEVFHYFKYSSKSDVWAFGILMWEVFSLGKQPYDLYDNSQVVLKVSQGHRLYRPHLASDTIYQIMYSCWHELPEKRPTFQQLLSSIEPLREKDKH
T1 sequence (P51813 whole entry): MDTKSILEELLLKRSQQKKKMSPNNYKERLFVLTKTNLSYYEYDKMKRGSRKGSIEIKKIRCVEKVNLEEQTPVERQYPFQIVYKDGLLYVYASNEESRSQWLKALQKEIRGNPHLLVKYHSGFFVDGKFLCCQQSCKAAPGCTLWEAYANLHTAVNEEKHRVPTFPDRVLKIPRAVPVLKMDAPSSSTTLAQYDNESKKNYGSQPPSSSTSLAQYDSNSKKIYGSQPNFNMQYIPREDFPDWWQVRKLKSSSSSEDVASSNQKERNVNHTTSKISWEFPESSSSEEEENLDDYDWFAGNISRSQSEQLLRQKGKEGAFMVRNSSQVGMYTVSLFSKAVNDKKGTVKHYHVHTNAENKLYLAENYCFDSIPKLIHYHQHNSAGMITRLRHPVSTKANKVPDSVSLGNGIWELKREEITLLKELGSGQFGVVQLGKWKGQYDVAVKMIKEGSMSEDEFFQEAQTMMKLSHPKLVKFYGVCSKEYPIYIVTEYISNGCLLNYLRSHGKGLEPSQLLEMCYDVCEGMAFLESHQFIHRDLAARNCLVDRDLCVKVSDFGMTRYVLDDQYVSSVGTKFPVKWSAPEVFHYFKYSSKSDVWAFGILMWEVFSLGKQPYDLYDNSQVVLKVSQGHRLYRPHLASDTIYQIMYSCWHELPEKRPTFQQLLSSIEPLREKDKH
Chain of SRC (P12931 whole entry): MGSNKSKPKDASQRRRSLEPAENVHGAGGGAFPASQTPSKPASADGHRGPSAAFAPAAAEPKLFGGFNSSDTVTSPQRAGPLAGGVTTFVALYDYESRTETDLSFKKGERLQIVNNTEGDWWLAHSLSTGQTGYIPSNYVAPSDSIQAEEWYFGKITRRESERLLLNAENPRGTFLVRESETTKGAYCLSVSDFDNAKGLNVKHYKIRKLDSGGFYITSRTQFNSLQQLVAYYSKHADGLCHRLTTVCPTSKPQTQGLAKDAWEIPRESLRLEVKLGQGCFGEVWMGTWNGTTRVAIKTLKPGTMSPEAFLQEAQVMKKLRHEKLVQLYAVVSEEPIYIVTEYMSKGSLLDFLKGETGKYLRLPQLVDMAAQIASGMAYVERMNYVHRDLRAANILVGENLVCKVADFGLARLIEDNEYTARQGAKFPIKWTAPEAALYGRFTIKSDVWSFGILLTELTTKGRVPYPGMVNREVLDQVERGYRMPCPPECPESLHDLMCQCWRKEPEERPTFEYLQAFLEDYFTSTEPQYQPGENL
From the text for His6-hsBMX: response upon compound injection (t=0s), or upon washing (t=220s), on immobilized His6-
hsBMX surfaces. Compound concentrations injected on already saturated surfaces were not
included in the 1:1 Langmuir fitting model. X-axis: time (s); y-axis: response (arbitrary units).
Inset plots [x-axis: compound concentration (M); y-axis: response (arbitrary units)] show the
steady-state affinity (KDss) fit for the interactions wherein equilibrium was reached.
Surface Plasmon Resonance:
The kinetic and affinity parameters of protein-compound interaction were evaluated by SPR.
Experiments were carried out in a Biacore 4000 instrument (Biacore AB, GE Healthcare Life
Sciences, Uppsala, Sweden) at 25 °C. His6-BMX protein was diluted to 10 µg/mL in sodium
acetate pH 5.5, in the presence of 5 µM staurosporine and immobilized onto CM5 (Series S)
sensor chips, using the standard amine coupling procedure. Prior to immobilization, the
carboxymethylated surface of the chip was activated with 400 mM 1-ethyl-3-(3-
dimethylaminopropyl)-carbodiimide and 100 mM N-hydroxysuccinimide for 10 min. HBS-N
(10 mM HEPES pH7.4, 150mM NaCl) was used as the background buffer. Protein was coupled
to the surface after 2 to 10 min injection times, at a flow rate of 10 µL/min, in order to reach
1500 to 3500 response units (RU). The remaining activated carboxymethylated groups were
blocked with a 7 min injection of 1 M ethanolamine pH 8.5. Compounds were pre-diluted in
DMSO to 50x the desired highest tested concentration and diluted afterwards in running buffer
(20 mM HEPES pH 7.4, 150 mM NaCl, 1 mM DTT, 0.1 mM EGTA, 0.05 % (v/v) TWEEN-
20, 5 mM MgCl2) in order to reach 2% of DMSO concentration. A DMSO solvent correction
(1% - 3%) was performed to account for variations in bulk signal and to achieve high-quality
data. Each compound was injected over immobilized His6-BMX for 220 s (30 µL min-1;
association phase) followed by 600 to 2000 s of buffer flow (dissociation phase) at a maximum
five times in 2-fold dilution series. All sensorgrams were processed by first subtracting the
binding response recorded from the control surface (reference spot), followed by subtracting
the buffer blank injection from the reaction spot. All datasets were fit to a simple 1:1 Langmuir
interaction model with the provided Biacore 4000 Evaluation software, to determine kinetic rate constants (kon, koff) or steady-state affinity (KDss).
Method for SRC: Therefore, we included the whole TEC, EGFR and JAK family in our screening, and the Src family and Lkb1, which also have a cysteine within the same sequence alignment. We also included kinases involved in upstream (Src, FAK, PI3K, mTOR, PDK1) and downstream (Akt, PAK1, TAM) regulation of BMX signaling pathway and non-receptor tyrosine protein kinase Abl.
Kinome selectivity was performed with DiscoverX KINOMEscan™ technology.

For `C=CC(=O)Nc1cc(C)cc(-n2c(=O)ccc3cnc4cc(-c5ccc(NS(C)(=O)=O)cc5)ccc4c32)c1` [JS25], the “degradation of BMX protein” value in assay [1] is “induce degradation of wild-type BMX in PC3 cells”. Also, at SRC, the remaining binding at 1 µM was determined as 92%.
On His6-hsBMX, `C=CC(=O)Nc1cc(-n2c(=O)ccc3cnc4cc(-c5ccc(NS(C)(=O)=O)cc5)ccc4c32)ccc1C` [JS24] showed a dissociation rate constant (koff) of less than 0.0001 s⁻¹ and an on-rate (kon) of 140000 M⁻¹ s⁻¹. Further, growth with 22 RV1 was halved (GI50) at 6.66 ± 0.09 µM.

One may read the koff as a measure of how fast the partners let go of each other. What is called kon is the second-order rate constant of association. A lower kon goes with slow association. One may read the GI50 as the concentration giving 50% growth inhibition. A low value points to more potent growth inhibition.
